Biological target: P. falciparum apicoplast DNA polymerase (Pf-apPOL) (Plasmodium falciparum, UniProt Q8ILY1)
Experiment: Fluorescence-based high-throughput DNA polymerase assay (molecular beacon), primary screen and dose-response;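 on % inhibition ApPOL 90': test concentration in µM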;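 on % inhibition apPOL 180': test concentration in µM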
Format: biochemical
Procedure, shortened: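 Single-point screening used 10 µM compound with 20 nM polymerase, 20 nM hairpin substrate and 6 µM dNTPs for 90 min at 25 °C. Confirmatory titrations (2.5–80 µM) followed fluorescence at three times, and IC50 was derived from a fit including a cooperativity term n.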

[1] = primary screen value of the 186 hits; unit not given; 90 min, 10 µM

Sequence of P. falciparum apicoplast DNA polymerase (Pf-apPOL) (Q8ILY1 entry or part of it): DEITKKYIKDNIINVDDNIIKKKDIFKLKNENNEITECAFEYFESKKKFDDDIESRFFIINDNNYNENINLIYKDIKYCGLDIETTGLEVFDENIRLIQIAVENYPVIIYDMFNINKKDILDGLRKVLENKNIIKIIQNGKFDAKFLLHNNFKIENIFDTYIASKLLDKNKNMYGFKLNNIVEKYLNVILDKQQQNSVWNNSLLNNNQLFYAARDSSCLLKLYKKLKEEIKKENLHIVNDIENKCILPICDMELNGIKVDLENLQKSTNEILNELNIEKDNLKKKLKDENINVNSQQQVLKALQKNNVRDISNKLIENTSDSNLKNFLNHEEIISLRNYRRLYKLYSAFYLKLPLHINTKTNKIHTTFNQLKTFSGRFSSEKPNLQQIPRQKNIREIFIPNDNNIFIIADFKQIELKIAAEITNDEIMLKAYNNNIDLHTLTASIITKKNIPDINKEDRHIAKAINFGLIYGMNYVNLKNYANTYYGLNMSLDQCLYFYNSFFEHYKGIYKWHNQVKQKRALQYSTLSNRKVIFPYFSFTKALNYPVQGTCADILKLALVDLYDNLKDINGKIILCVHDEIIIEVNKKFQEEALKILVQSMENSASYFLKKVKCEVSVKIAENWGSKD

O=C1C(=Cc2ccncc2)Oc2c1ccc1c2CN(Cc2ccc3c(c2)OCO3)CO1 [KU0199357]
% inhibition Apo pol 10' (DRC-1; 10'; concentration 2.5): -2.582% | % inhibition Apo pol 10' (DRC-1; 10'; concentration 5): 7.288% | % inhibition Apo pol 10' (DRC-1; 10'; concentration 10): 20.9046% | % inhibition Apo pol 10' (DRC-1; 10'; concentration 20): 43.4481% | % inhibition Apo pol 10' (DRC-1; 10'; concentration 40): 58.0959% | % inhibition Apo pol 10' (DRC-1; 10'; concentration 80): 67.6881% | % inhibition Apol 90' (DRC-1; 90'; concentration 2.5): 5.905% | % inhibition Apol 90' (DRC-1; 90'; concentration 5): 17.1592% | % inhibition Apol 90' (DRC-1; 90'; concentration 10): 34.0534% | % inhibition Apol 90' (DRC-1; 90'; concentration 20): 57.2301% | % inhibition Apol 90' (DRC-1; 90'; concentration 40): 66.3839% | % inhibition Apol 90' (DRC-1; 90'; concentration 80): 71.081% | % inhibition apPOL 180' (DRC-1; 180'; concentration 2.5): 18.2% | % inhibition apPOL 180' (DRC-1; 180'; concentration 5): 33.6281% | % inhibition apPOL 180' (DRC-1; 180'; concentration 10): 52.8401% | % inhibition apPOL 180' (DRC-1; 180'; concentration 20): 75.9569% | % inhibition apPOL 180' (DRC-1; 180'; concentration 40): 84.0502% | % inhibition apPOL 180' (DRC-1; 180'; concentration 80): 84.7923% | % inhibition Apo pol 5' (DRC-2; 5'; concentration 2.5): 6% | % inhibition Apo pol 5' (DRC-2; 5'; concentration 5): 15% | % inhibition Apo pol 5' (DRC-2; 5'; concentration 10): 35% | % inhibition Apo pol 5' (DRC-2; 5'; concentration 20): 37% | % inhibition Apo pol 5' (DRC-2; 5'; concentration 40): 46% | % inhibition Apo pol 5' (DRC-2; 5'; concentration 80): 40% | % inhibition Apol 40' (DRC-2; 40'; concentration 2.5): 1.87% | % inhibition Apol 40' (DRC-2; 40'; concentration 5): 3% | % inhibition Apol 40' (DRC-2; 40'; concentration 10): 31% | % inhibition Apol 40' (DRC-2; 40'; concentration 20): 32% | % inhibition Apol 40' (DRC-2; 40'; concentration 40): 39% | % inhibition Apol 40' (DRC-2; 40'; concentration 80): 34% | % inhibition ApPOL 90' (DRC-2; 90'; concentration 2.5): -1.19% | % inhibition ApPOL 90' (DRC-2; 90'; concentration 5): -9% | % inhibition ApPOL 90' (DRC-2; 90'; concentration 10): 26% | % inhibition ApPOL 90' (DRC-2; 90'; concentration 20): 27% | % inhibition ApPOL 90' (DRC-2; 90'; concentration 40): 36% | % inhibition ApPOL 90' (DRC-2; 90'; concentration 80): 34% | % inhibition apPOL 180' (DRC-2; 180'; concentration 2.5): -7% | % inhibition apPOL 180' (DRC-2; 180'; concentration 5): -87% | % inhibition apPOL 180' (DRC-2; 180'; concentration 10): 11% | % inhibition apPOL 180' (DRC-2; 180'; concentration 20): 13% | % inhibition apPOL 180' (DRC-2; 180'; concentration 40): 28% | % inhibition apPOL 180' (DRC-2; 180'; concentration 80): 35% | % inhibition Apo pol 5' (conc. 10; 5'; DRC-2): 35% | % inhibition Apol 40' (conc. 80; 40'; DRC-2): 34% | % inhibition ApPOL 90' (conc. 80; 90'; DRC-2): 34% | % inhibition apPOL 180' (conc. 80; 180'; DRC-2): 35% | DNA Pol (primary screen value by plate and well; 90 min, 10 µM): 32 | DNA Pol [1]: 32

COc1ccc(C=C2Oc3c(ccc4c3CN(Cc3ccco3)CO4)C2=O)c(OC)c1 [KU0199404]
% inhibition Apo pol 10' (DRC-1; concentration 2.5; 10'): 1.778% | % inhibition Apol 90' (DRC-1; concentration 2.5; 90'): 6.394% | % inhibition apPOL 180' (DRC-1; concentration 2.5; 180'): 14.4773% | % inhibition Apo pol 10' (DRC-1; concentration 5; 10'): 2.359% | % inhibition Apol 90' (DRC-1; concentration 5; 90'): 10.7843% | % inhibition apPOL 180' (DRC-1; concentration 5; 180'): 25.2477% | % inhibition Apo pol 10' (DRC-1; concentration 10; 10'): 17.8134% | % inhibition Apol 90' (DRC-1; concentration 10; 90'): 29.7292% | % inhibition apPOL 180' (DRC-1; concentration 10; 180'): 48.7066% | % inhibition Apo pol 10' (DRC-1; concentration 20; 10'): 37.7158% | % inhibition Apol 90' (DRC-1; concentration 20; 90'): 50.8732% | % inhibition apPOL 180' (DRC-1; concentration 20; 180'): 69.9557% | % inhibition Apo pol 10' (DRC-1; concentration 40; 10'): 58.5562% | % inhibition Apol 90' (DRC-1; concentration 40; 90'): 70.9348% | % inhibition apPOL 180' (DRC-1; concentration 40; 180'): 86.2262% | % inhibition Apo pol 10' (DRC-1; concentration 80 (unit not given); 10'): 73.935% | % inhibition Apol 90' (DRC-1; concentration 80; 90'): 78.9077% | % inhibition apPOL 180' (DRC-1; concentration 80; 180'): 90.2103% | % inhibition Apo pol 5' (DRC-2; 5'; concentration 10): 33% | % inhibition Apo pol 5' (DRC-2; 5'; concentration 80): 49% | % inhibition Apol 40' (DRC-2; 40'; concentration 10): 33% | % inhibition Apol 40' (DRC-2; 40'; concentration 20): 49% | % inhibition Apo pol 5' (DRC-2; concentration 2.5; 5'): 5% | % inhibition Apol 40' (DRC-2; concentration 2.5; 40'): 1.45% | % inhibition ApPOL 90' (DRC-2; concentration 2.5; 90'): -0.679% | % inhibition apPOL 180' (DRC-2; concentration 2.5; 180'): -6% | % inhibition Apo pol 5' (DRC-2; concentration 5; 5'): 12% | % inhibition Apol 40' (DRC-2; concentration 5; 40'): 3.41% | % inhibition ApPOL 90' (DRC-2; concentration 5; 90'): -6.4% | % inhibition apPOL 180' (DRC-2; concentration 5; 180'): -80% | % inhibition Apo pol 5' (DRC-2; concentration 10; 5'): 33% | % inhibition Apol 40' (DRC-2; concentration 10; 40'): 33% | % inhibition ApPOL 90' (DRC-2; concentration 10; 90'): 30% | % inhibition apPOL 180' (DRC-2; concentration 10; 180'): 17% | % inhibition Apo pol 5' (DRC-2; concentration 20; 5'): 46% | % inhibition Apol 40' (DRC-2; concentration 20; 40'): 49% | % inhibition ApPOL 90' (DRC-2; concentration 20; 90'): 45% | % inhibition apPOL 180' (DRC-2; concentration 20; 180'): 31% | % inhibition Apo pol 5' (DRC-2; concentration 40; 5'): 52% | % inhibition Apol 40' (DRC-2; concentration 40; 40'): 58% | % inhibition ApPOL 90' (DRC-2; concentration 40; 90'): 56% | % inhibition apPOL 180' (DRC-2; concentration 40; 180'): 47% | % inhibition Apo pol 5' (DRC-2; concentration 80; 5'): 49% | % inhibition Apol 40' (DRC-2; concentration 80; 40'): 51% | % inhibition ApPOL 90' (DRC-2; concentration 80; 90'): 48% | % inhibition apPOL 180' (DRC-2; concentration 80; 180'): 43% | DNA Pol [1]: 29 | DNA Pol (primary screen value; head prints only 'DNA Pol'; 90 min, 10 µM): 29

Source: paper PMC9090415, “Discovery of small molecule inhibitors of Plasmodium falciparum apicoplast DNA polymerase” (Journal of Enzyme Inhibition and Medicinal Chemistry, 2022)
